# According to PMC6930582, “Synthesis and Evaluation of Novel 2H-Benzo[e]-[1,2,4]thiadiazine 1,1-Dioxide Derivatives as PI3Kδ Inhibitors” (Molecules, 2019):
# “Also recorded” adds a separate entry of the source. Like-named read-outs stand apart in the source and are kept apart here.
# Columns and labels:
# PI3Kδ = PI3Kδ (Homo sapiens, UniProt O00329); assay: PI3Kδ kinase assay (ADP-Glo luminescent assay); format: biochemical; conditions: for IC50: ADP-Glo, mean ± SD from two separate experiments, Table 1 and text, read-out: PI3Kδ inhibitory activity IC50; for PI3Kδ inhibitory activity (in words): qualitative statement; for decrease in PI3Kδ potency on introduction of 7-fluorine: compared with the non-fluorinated analogue
# Sequence of PI3Kδ (O00329 whole entry): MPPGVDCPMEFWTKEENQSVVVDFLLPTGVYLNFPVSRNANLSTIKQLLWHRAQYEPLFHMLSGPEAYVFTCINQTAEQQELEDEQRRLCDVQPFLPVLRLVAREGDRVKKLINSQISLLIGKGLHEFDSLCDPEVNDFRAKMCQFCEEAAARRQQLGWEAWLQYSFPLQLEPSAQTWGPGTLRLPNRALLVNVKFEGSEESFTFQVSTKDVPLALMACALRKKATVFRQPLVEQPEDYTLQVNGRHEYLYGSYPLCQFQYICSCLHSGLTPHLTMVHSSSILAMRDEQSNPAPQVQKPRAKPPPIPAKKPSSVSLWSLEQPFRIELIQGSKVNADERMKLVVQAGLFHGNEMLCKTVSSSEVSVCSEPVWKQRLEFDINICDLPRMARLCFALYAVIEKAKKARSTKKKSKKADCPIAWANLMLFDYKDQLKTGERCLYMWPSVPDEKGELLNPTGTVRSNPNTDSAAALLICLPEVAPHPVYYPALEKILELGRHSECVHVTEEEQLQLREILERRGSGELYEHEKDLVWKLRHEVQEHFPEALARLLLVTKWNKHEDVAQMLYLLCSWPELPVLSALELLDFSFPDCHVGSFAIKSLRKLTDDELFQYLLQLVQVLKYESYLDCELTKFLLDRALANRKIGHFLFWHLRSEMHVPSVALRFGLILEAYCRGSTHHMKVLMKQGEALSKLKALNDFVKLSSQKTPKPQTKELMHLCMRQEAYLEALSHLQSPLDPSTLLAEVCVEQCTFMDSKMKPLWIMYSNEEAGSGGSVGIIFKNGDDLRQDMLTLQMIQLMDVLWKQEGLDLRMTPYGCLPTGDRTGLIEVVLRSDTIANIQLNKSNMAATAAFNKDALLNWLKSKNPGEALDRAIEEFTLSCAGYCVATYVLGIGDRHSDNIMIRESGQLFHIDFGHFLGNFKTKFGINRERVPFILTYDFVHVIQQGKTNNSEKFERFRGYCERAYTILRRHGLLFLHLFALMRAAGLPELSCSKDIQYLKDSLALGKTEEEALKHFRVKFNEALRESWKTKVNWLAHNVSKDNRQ
# Sequence of PI3Kδ (P27986 whole entry partner): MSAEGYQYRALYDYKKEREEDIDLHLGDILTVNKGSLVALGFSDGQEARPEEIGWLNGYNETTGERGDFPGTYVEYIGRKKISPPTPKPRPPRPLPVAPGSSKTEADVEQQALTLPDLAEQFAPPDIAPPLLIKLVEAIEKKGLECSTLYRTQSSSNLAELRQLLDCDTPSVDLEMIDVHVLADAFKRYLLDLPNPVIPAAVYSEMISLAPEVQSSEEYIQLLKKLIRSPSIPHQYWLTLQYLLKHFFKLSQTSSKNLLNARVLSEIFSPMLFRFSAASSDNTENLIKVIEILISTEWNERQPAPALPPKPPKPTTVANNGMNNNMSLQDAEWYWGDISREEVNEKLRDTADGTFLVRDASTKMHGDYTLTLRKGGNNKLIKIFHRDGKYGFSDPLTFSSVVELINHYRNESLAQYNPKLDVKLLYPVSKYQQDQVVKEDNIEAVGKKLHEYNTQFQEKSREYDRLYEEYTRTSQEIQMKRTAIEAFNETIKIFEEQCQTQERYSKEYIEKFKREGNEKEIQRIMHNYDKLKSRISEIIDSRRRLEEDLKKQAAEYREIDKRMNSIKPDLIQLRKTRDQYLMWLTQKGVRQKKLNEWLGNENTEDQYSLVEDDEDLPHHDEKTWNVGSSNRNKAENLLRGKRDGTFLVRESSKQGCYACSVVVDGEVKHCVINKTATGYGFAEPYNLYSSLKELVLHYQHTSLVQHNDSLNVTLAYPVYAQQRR
# PI3Kα [1] = target: T1, PI3Kα (Homo sapiens, UniProt P42336); assay: PI3Kα kinase assay (kinase-Glo luminescent assay); format: biochemical; conditions: for IC50: kinase-Glo, mean ± SD from two separate experiments
# T1 sequence (P42336 whole entry): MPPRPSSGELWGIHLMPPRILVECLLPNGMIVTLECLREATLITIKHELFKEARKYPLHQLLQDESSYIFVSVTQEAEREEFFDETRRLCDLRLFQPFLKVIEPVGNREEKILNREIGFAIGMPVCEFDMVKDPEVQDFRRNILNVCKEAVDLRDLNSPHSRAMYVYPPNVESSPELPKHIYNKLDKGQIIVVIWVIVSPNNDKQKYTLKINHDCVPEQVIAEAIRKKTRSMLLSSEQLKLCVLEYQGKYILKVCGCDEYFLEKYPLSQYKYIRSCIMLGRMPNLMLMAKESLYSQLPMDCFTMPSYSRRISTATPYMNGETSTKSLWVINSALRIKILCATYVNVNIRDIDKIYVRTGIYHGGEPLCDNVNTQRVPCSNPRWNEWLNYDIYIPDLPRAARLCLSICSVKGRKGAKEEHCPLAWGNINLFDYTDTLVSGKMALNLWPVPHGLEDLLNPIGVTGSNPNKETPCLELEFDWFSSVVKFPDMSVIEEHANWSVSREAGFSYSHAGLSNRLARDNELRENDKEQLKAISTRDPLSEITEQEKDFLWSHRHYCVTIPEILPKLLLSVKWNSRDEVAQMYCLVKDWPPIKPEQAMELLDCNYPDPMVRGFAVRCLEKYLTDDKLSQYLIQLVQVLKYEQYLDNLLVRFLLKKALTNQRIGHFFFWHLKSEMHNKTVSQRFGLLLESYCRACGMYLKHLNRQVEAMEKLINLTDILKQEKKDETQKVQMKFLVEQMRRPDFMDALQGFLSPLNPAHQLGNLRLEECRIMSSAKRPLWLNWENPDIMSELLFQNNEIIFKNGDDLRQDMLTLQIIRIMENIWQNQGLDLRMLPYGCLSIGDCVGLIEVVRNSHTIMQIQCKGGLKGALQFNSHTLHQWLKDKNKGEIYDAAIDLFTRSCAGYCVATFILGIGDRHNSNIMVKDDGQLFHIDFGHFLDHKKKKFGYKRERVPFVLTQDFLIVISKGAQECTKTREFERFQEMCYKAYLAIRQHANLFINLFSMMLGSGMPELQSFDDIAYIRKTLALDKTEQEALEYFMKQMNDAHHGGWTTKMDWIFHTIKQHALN
# T1 sequence (P27986 whole entry partner): as the sequence (P27986 whole entry partner) above
# PI3Kβ [2] = target: T2, PI3Kβ (Homo sapiens, UniProt P42338); assay: PI3Kβ kinase assay (ADP-Glo luminescent assay); format: biochemical; conditions: for IC50: ADP-Glo, mean ± SD from two separate experiments
# T2 sequence (P42338 whole entry): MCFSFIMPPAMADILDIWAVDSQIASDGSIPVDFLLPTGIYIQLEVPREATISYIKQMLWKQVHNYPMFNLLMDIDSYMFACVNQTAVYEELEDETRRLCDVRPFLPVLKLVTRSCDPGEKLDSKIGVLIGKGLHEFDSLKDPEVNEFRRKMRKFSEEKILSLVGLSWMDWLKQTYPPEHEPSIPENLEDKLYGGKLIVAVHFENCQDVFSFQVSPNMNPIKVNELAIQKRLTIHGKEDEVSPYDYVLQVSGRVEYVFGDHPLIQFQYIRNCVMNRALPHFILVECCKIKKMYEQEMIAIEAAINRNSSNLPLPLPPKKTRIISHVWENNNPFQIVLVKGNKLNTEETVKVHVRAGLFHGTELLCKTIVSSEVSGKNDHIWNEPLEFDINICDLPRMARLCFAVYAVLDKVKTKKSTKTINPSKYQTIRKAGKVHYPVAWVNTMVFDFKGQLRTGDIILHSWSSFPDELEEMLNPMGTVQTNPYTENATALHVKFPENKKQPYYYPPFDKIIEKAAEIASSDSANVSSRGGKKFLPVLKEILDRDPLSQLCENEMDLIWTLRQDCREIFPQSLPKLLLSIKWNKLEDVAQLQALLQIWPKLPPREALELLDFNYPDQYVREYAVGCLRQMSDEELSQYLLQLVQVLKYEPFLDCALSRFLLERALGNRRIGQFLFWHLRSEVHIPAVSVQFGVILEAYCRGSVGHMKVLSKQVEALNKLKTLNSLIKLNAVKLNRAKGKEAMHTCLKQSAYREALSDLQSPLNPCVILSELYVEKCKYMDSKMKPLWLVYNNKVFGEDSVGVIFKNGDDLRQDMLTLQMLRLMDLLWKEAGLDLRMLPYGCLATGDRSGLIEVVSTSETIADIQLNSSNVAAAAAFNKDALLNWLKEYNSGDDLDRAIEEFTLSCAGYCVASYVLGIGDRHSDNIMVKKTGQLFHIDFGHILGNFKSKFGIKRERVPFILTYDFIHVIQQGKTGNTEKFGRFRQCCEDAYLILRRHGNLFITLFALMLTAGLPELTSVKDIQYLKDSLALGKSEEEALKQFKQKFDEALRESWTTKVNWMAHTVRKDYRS
# T2 sequence (P27986 whole entry partner): as the sequence (P27986 whole entry partner) above
# PI3Kγ [3] = target: T3, PI3Kγ (Homo sapiens, UniProt P48736); assay: PI3Kγ kinase assay (ADP-Glo luminescent assay); format: biochemical; conditions: mean ± SD from two separate experiments
# T3 sequence (P48736 whole entry): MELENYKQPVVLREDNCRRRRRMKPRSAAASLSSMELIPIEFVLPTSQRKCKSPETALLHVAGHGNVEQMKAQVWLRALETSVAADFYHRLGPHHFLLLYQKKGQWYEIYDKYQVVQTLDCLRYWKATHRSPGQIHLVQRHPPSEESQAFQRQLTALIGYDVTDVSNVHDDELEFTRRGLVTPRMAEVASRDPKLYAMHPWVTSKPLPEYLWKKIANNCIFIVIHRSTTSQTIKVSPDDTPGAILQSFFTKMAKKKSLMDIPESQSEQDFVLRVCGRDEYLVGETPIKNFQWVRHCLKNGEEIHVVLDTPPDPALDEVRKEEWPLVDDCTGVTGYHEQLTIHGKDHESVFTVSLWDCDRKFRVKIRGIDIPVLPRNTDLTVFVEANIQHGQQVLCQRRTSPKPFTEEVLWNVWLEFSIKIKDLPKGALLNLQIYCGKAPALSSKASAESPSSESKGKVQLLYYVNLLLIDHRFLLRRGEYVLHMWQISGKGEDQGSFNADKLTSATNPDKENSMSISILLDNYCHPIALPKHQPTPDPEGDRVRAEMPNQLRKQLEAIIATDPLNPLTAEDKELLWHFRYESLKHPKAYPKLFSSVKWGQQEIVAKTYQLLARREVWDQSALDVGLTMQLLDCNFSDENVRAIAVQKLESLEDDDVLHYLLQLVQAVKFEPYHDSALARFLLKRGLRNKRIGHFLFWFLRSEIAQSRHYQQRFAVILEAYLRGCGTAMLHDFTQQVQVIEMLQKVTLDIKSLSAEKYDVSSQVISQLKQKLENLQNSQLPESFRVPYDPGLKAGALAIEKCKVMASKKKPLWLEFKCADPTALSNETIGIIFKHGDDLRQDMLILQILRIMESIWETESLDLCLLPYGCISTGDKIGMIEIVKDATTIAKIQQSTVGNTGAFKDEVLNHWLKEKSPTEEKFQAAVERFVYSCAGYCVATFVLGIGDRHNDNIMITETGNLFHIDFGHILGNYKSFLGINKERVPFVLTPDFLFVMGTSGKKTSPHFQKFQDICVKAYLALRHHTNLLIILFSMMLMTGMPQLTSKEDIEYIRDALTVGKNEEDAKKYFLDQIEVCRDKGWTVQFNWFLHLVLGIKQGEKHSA
# SU-DHL-6 cells = assay: SU-DHL-6 cell proliferation assay (CellTiter-Glo); format: cell-based, human; conditions: for GI50: Homo sapiens, SU-DHL-6 cell growth inhibition, CellTiter-Glo, mean ± SD from two separate experiments; for SU-DHL-6 cell proliferation inhibition (in words): qualitative statement
# Description: The selective PI3Kδ inhibitors 15a and 15b were further evaluated for their antiproliferative activity against human B-cell SU-DHL-6.
# Cell proliferation was evaluated by The CellTiter-Glo luminescent cell viability assay (Promega, Shanghai, China) was used to evaluate the inhibitory activity of compounds 15a and 15b following the manufacturer’s protocol. In brief, SU-DHL-6 (ATCC) cells were seeded in 96-well plates (Corning, Los Altos, MA, USA) at density of 1 × 10^4 cells per well, and incubated with medium alone or with the tested compounds at the indicated concentrations (50 μM in DMSO, 3-fold dilution, in duplicate for 10 concentrations). 50 μL CellTiter-Glo (Promega, Shanghai, China) reagent was added to each well to induce cell lysis, and the plate was incubated at room temperature for 10 min to stabilize luminescent signal. After 100 μL of the mixture from each well was transferred to a new 96-well black plate, the […] signal was read on EnVision (Shanghai, China) and the data were analysized by XLFit 4 software (IDBS, Berlin, Germany).
# PI3Kγ [4] = target: T3, PI3Kγ; parameters: method as in PMID 29601991; conditions: quinazolinone leads, previous work; ref [33]; cited from earlier work
# PI3Kα [5] = target: T1, PI3Kα; parameters: method as in PMID 29601991; conditions: quinazolinone leads, previous work; ref [33]; cited from earlier work
# PI3Kβ [6] = target: T2, PI3Kβ; parameters: method as in PMID 29601991; conditions: quinazolinone leads, previous work; ref [33]; cited from earlier work
IC50 (PI3Kδ) [µM],melting point [°C],SMILES,PI3Kδ inhibitory activity (in words) (PI3Kδ),further results
0.217 ± 0.028,,"Cc1cccc(C)c1N1C(Cn2nc(-c3ccc4[nH]ccc4c3)c3c(N)ncnc32)=Nc2ccccc2S1(=O)=O [15a, 3-((4-Amino-3-(1H-indol-5-yl)-1H-pyrazolo[3,4-d]pyrimidin-1-yl)methyl)-2-(2,6-dimethylphenyl)-2H-benzo[e][1,2,4]thiadiazine 1,1-dioxide]",,IC50 (PI3Kα [1]): > 50 µM; IC50 (PI3Kβ [2]): 30.6 ± 0.875 µM; IC50 (PI3Kγ [3]): > 50 µM; GI50 (SU-DHL-6 cells): 2.13 ± 0.09 µM; SU-DHL-6 cell proliferation inhibition (in words) (SU-DHL-6 cells): significantly inhibited; also recorded: high antiproliferative potency
0.266 ± 0.031,220 to 222,"COc1ccc(-c2nn(CC3=Nc4ccccc4S(=O)(=O)N3c3c(C)cccc3C)c3ncnc(N)c23)cc1OC [15b, 3-((4-Amino-3-(3,4-dimethoxyphenyl)-1H-pyrazolo[3,4-d]pyrimidin-1-yl)methyl)-2-(2,6-dimethylphenyl)-2H-benzo[e][1,2,4]thiadiazine 1,1-dioxide]",,IC50 (PI3Kα [1]): 16.4 ± 0.768 µM; selectivity for PI3Kδ over PI3Kα (PI3Kα [1]; ratio of IC50 values): more than 60 fold; IC50 (PI3Kβ [2]): 24.2 ± 0.495 µM; selectivity for PI3Kδ over PI3Kβ (PI3Kβ [2]; ratio of IC50 values): > 90 fold; IC50 (PI3Kγ [3]): 5.84 ± 0.135 µM; GI50 (SU-DHL-6 cells): 2.5 ± 0.11 µM; SU-DHL-6 cell proliferation inhibition (in words) (SU-DHL-6 cells): significantly inhibited; also recorded: high antiproliferative potency
> 1,225 to 226,"Cc1cccc(C)c1N1C(Cn2nc(-c3ccc4c(c3)OCCO4)c3c(N)ncnc32)=Nc2ccccc2S1(=O)=O [15e, 3-((4-Amino-3-(2,3-dihydrobenzo[b][1,4]dioxin-6-yl)-1H-pyrazolo[3,4-d]pyrimidin-1-yl)methyl)-2-(2,6-dimethylphenyl)-2H-benzo[e][1,2,4]thiadiazine 1,1-dioxide]",not tolerated,
> 1,> 250,"Cc1cccc(C)c1N1C(Cn2nc(-c3ccc4c(c3)OCO4)c3c(N)ncnc32)=Nc2ccccc2S1(=O)=O [15f, 3-((4-Amino-3-(benzo[d][1,3]dioxol-5-yl)-1H-pyrazolo[3,4-d]pyrimidin-1-yl)methyl)-2-(2,6-dimethyl-phenyl)-2H-benzo[e][1,2,4]thiadiazine 1,1-dioxide]",not tolerated,
> 1,,"COc1ccc(-c2nn(CC3=Nc4ccccc4S(=O)(=O)N3c3c(C)cccc3C)c3ncnc(N)c23)cc1 [15g, 3-((4-Amino-3-(4-methoxyphenyl)-1H-pyrazolo[3,4-d]pyrimidin-1-yl)methyl)-2-(2,6-dimethylphenyl)-2H-benzo[e][1,2,4]thiadiazine 1,1-dioxide]",not tolerated,
> 1,,"COc1cccc(-c2nn(CC3=Nc4ccccc4S(=O)(=O)N3c3c(C)cccc3C)c3ncnc(N)c23)c1 [15h, 3-((4-Amino-3-(3-methoxyphenyl)-1H-pyrazolo[3,4-d]pyrimidin-1-yl)methyl)-2-(2,6-dimethylphenyl)-2H-benzo[e][1,2,4]thiadiazine 1,1-dioxide]",not tolerated,
> 1,206 to 207,"Cc1cccc(C)c1N1C(Cn2nc(-c3ccc(OC(F)(F)F)cc3)c3c(N)ncnc32)=Nc2ccccc2S1(=O)=O [15i, 3-((4-Amino-3-(4-(trifluoromethoxy)phenyl)-1H-pyrazolo[3,4-d]pyrimidin-1-yl)methyl)-2-(2,6-dimethyl-phenyl)-2H-benzo[e][1,2,4]thiadiazine 1,1-dioxide]",not tolerated,
> 1,,"Cc1cccc(C)c1N1C(Cn2nc(-c3ccccc3)c3c(N)ncnc32)=Nc2ccccc2S1(=O)=O [15j, 3-((4-Amino-3-phenyl-1H-pyrazolo[3,4-d]pyrimidin-1-yl)methyl)-2-(2,6-dimethylphenyl)-2H-benzo[e]-[1,2,4]thiadiazine 1,1-dioxide]",not tolerated,
> 1,132 to 133,"Cc1cccc(C)c1N1C(Cn2nc(-c3ccc4[nH]ccc4c3)c3c(N)ncnc32)=Nc2ccc(F)cc2S1(=O)=O [16a, 3-((4-Amino-3-(1H-indol-5-yl)-1H-pyrazolo[3,4-d]pyrimidin-1-yl)methyl)-2-(2,6-dimethylphenyl)-7-fluoro-2H-benzo[e][1,2,4]thiadiazine 1,1-dioxide]",lost its activity,
,,"CC[C@H](Nc1ncnc2[nH]cnc12)c1nc2cccc(F)c2c(=O)n1-c1ccccc1 [CAL-101, reference compound]",,GI50 (SU-DHL-6 cells): 0.039 ± 0.011 µM
,,Cc1cccc(C)c1-n1c(Cn2nc(-c3ccc4[nH]ccc4c3)c3c(N)ncnc32)nc2cccc(F)c2c1=O [compound 3],,selectivity for PI3Kδ over PI3Kγ (PI3Kγ [4]): > 40 fold; selectivity for PI3Kδ over PI3Kα (PI3Kα [5]): more than 3630 fold; selectivity for PI3Kδ over PI3Kβ (PI3Kβ [6]): > 390 fold
,,COc1ccc(-c2nn(Cc3nc4cccc(F)c4c(=O)n3-c3c(C)cccc3C)c3ncnc(N)c23)cc1OC [compound 4],,selectivity for PI3Kδ over PI3Kγ (PI3Kγ [4]): 7 fold; selectivity for PI3Kδ over PI3Kα (PI3Kα [5]): more than 1400 fold; selectivity for PI3Kδ over PI3Kβ (PI3Kβ [6]): > 820 fold

SMILES,IC50 (PI3Kδ) [µM],melting point [°C],PI3Kδ inhibitory activity (in words) (PI3Kδ),further results
"COc1ccc(-c2nn(CC3=Nc4ccccc4S(=O)(=O)N3c3c(C)cccc3C)c3ncnc(N)c23)cc1F [15c, 3-((4-Amino-3-(3-fluoro-4-methoxyphenyl)-1H-pyrazolo[3,4-d]pyrimidin-1-yl)methyl)-2-(2,6-dimethyl-phenyl)-2H-benzo[e][1,2,4]thiadiazine 1,1-dioxide]",0.98 ± 0.045,,marginal activity,
"COc1ccc(-c2nn(CC3=Nc4ccccc4S(=O)(=O)N3c3c(C)cccc3C)c3ncnc(N)c23)cn1 [15d, 3-((4-Amino-3-(6-methoxypyridin-3-yl)-1H-pyrazolo[3,4-d]pyrimidin-1-yl)methyl)-2-(2,6-dimethylphenyl)-2H-benzo[e][1,2,4]thiadiazine 1,1-dioxide]",0.498 ± 0.033,,,
"COc1ccc(-c2nn(CC3=Nc4ccc(F)cc4S(=O)(=O)N3c3c(C)cccc3C)c3ncnc(N)c23)cc1OC [16b, 3-((A-amino-3-(3,4-dimethoxyphenyl)-1H-pyrazolo[3,4-d]pyrimidin-1-yl)methyl)-2-(2,6-dimethylphenyl)-7-fluoro-2H-benzo[e][1,2,4]thiadiazine 1,1-dioxide]",0.518 ± 0.062,229 to 230,,decrease in PI3Kδ potency on introduction of 7-fluorine (PI3Kδ): ~2 fold
"COc1ccc(-c2nn(CC3=Nc4ccc(F)cc4S(=O)(=O)N3c3c(C)cccc3C)c3ncnc(N)c23)cc1F [16c, 3-((4-Amino-3-(3-fluoro-4-methoxyphenyl)-1H-pyrazolo[3,4-d]pyrimidin-1-yl)methyl)-2-(2,6-dimethyl-phenyl)-7-fluoro-2H-benzo[e][1,2,4]thiadiazine 1,1-dioxide]",0.824 ± 0.076,201 to 202,slight increase in potency,
"COc1ccc(-c2nn(CC3=Nc4ccc(F)cc4S(=O)(=O)N3c3c(C)cccc3C)c3ncnc(N)c23)cn1 [16d, 3-((4-Amino-3-(6-methoxypyridin-3-yl)-1H-pyrazolo[3,4-d]pyrimidin-1-yl)methyl)-2-(2,6-dimethylphenyl)-7-fluoro-2H-benzo[e][1,2,4]thiadiazine 1,1-dioxide]",0.823 ± 0.069,,,decrease in PI3Kδ potency on introduction of 7-fluorine (PI3Kδ): ~2 fold
